Test results reported in patent publication US20240391862A1, “(1,4,5-TRISUBSTITUTED-1H-PYRAZOL-3-YL)OXY-2-ALKOXY ALKYL ACIDS AND THEIR DERIVATIVES, THEIR SALTS AND THEIR USE AS HERBICIDAL AGENTS” (Bayer AKtiengesellschaft, priority 2021, published 2024).

Assays:
KCHSC = test: Post-emergence herbicidal effect, greenhouse pot test; format: in vivo; details: 504 h, read-out: Post-emergence effect against KCHSC in %
How it was run: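 Visual rating of activity against untreated plants (100% = plants died, 0% = no effect), done about 3 weeks after treatment. Compounds applied at 20–320 g/ha as aqueous spray (600 l/ha, 0.5% additive) from WP or EC formulations onto one-leaf-stage plants grown in sandy loam under greenhouse conditions.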

DIGSA = test: as above; format: in vivo, Digitaria sanguinalis; details: Digitaria sanguinalis, 504 h, 320 g/ha, visual rating about 3 weeks after treatment, read-out: Post-emergence effect against DIGSA
How it was run: (§1)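 Visual % activity scored roughly 3 weeks post-spray against untreated plants, where 100% means death and 0% equals control. Plants were treated at the one-leaf stage, 2 to 3 weeks after sowing in sandy loam, at 20 to 320 g/ha.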

POLCO = test: as above; format: in vivo, Fallopia convolvulus; details: Fallopia convolvulus, 504 h, read-out: Post-emergence effect against POLCO in %
How it was run: as §1

LOLRI = test: as above; format: in vivo, Lolium rigidum; details: Lolium rigidum, 504 h, read-out: Post-emergence effect against LOLRI in %
How it was run: as §1

ABUTH = test: as above; format: in vivo, Abutilon theophrasti; details: Abutilon theophrasti, 504 h, visual rating about 3 weeks after treatment, read-out: Post-emergence effect against ABUTH
How it was run: as §1

ECHCG = test: as above; format: in vivo, Echinochloa crus-galli; details: Echinochloa crus-galli, 504 h; for pest or weed control at 80 g/ha / pest or weed control at 320 g/ha: read-out: Post-emergence effect against ECHCG in %
How it was run: as §1

PHBPU = test: as above; format: in vivo, Ipomoea purpurea; details: Ipomoea purpurea, 504 h, read-out: Post-emergence effect against PHBPU in %
How it was run: as §1

SETVI = test: as above; format: in vivo, Setaria viridis; details: Setaria viridis, 504 h, read-out: Post-emergence effect against SETVI in %
How it was run: as §1

AVEFA = test: as above; format: in vivo, Avena fatua; details: Avena fatua, 504 h, visual rating about 3 weeks after treatment, read-out: Post-emergence effect against AVEFA
How it was run: as §1

ALOMY = test: as above; format: in vivo, Alopecurus myosuroides; details: Alopecurus myosuroides, 504 h, 320 g/ha, visual rating about 3 weeks after treatment, read-out: Post-emergence effect against ALOMY
How it was run: as §1

ZEAMX = test: Post-emergence herbicidal effect and crop plant compatibility, greenhouse pot test; format: in vivo, Zea mays; details: Zea mays, 504 h, one-leaf stage, rated visually after about 3 weeks vs untreated controls
How it was run: as §1

VERPE = test: Post-emergence herbicidal effect, greenhouse pot test; format: in vivo, Veronica persica; details: Veronica persica, 504 h, read-out: Post-emergence effect against VERPE in %
How it was run: as §1

VIOTR = test: as above; format: in vivo, Viola tricolor; details: Viola tricolor, 504 h, read-out: Post-emergence effect against VIOTR in %
How it was run: as §1

MATIN = test: as above; format: in vivo, Tripleurospermum inodorum; details: Tripleurospermum inodorum, 504 h, read-out: Post-emergence effect against MATIN in %
How it was run: as §1

SMILES | pest or weed control at 80 g/ha (KCHSC) [%] | pest or weed control at 320 g/ha (KCHSC) [%] | pest or weed control at 320 g/ha (DIGSA) [%] | pest or weed control at 320 g/ha (POLCO) [%] | pest or weed control at 80 g/ha (LOLRI) [%] | pest or weed control at 320 g/ha (LOLRI) [%] | pest or weed control at 80 g/ha (ABUTH) [%] | pest or weed control at 320 g/ha (ABUTH) [%] | pest or weed control at 80 g/ha (ECHCG) [%] | pest or weed control at 320 g/ha (ECHCG) [%] | pest or weed control at 80 g/ha (PHBPU) [%] | pest or weed control at 320 g/ha (PHBPU) [%] | pest or weed control at 320 g/ha (SETVI) [%] | pest or weed control at 80 g/ha (AVEFA) [%] | pest or weed control at 320 g/ha (AVEFA) [%] | pest or weed control at 320 g/ha (ALOMY) [%] | pest or weed control at 320 g/ha (VERPE) [%] | pest or weed control at 80 g/ha (VIOTR) [%] | pest or weed control at 320 g/ha (VIOTR) [%] | other results
CCOC(=O)C(OC)Oc1nn(-c2ncccc2F)c(-c2ccc(F)nc2)c1C1CC1 (stereo not drawn) [Example I-58] | 90 | 90 | 80 | 80 | 90 | 90 | 80 | 80 | 90 | 90 | 80 | 90 | 90 | 80 | 90 | 90 | 80 | 80 | 80 | pest or weed control at 80 g/ha (POLCO; 80 g/ha): 80%; pest or weed control at 20 g/ha (AVEFA; 20 g/ha): 80%; plant injury at 20 g/ha (ZEAMX; 20 g/ha, read-out: Post-emergence effect at 20 g/ha against ZEAMX in %): 0%; plant injury at 80 g/ha (ZEAMX; 80 g/ha, read-out: Post-emergence effect at 80 g/ha against ZEAMX in %): 10%
COC(=O)C(OC)Oc1nn(-c2ncccc2F)c(-c2cncc(F)c2)c1Br (stereo not drawn) [Example I-91] | 80 | 90 | 90 | 80 | 90 | 90 | 80 | 80 | 80 | 90 | 80 | 80 | 80 | 90 | 90 | 80 | 80 | 80 | 80 | pest or weed control at 20 g/ha (KCHSC; 20 g/ha): 80%; pest or weed control at 20 g/ha (ECHCG; 20 g/ha, visual rating about 3 weeks after treatment, read-out: Post-emergence effect against ECHCG): 80%; pest or weed control at 20 g/ha (PHBPU; 20 g/ha): 80%; pest or weed control at 20 g/ha (SETVI; 20 g/ha): 80%; pest or weed control at 80 g/ha (SETVI; 80 g/ha): 80%; pest or weed control at 80 g/ha (MATIN; 80 g/ha): 80%; pest or weed control at 320 g/ha (MATIN; 320 g/ha): 80%; pest or weed control at 80 g/ha (VERPE; 80 g/ha): 80%; pest or weed control at 20 g/ha (VIOTR; 20 g/ha): 80%
